Source: PubChem BioAssay (NCI)
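Dose response: 5 concentrations. Exposure: 48 h. Format: 96-well plates. Endpoint: linear interpolation; highest concentration if not reached. TGI: total growth inhibition.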

Columns and labels:
Assay in all cases: inhibition of tumour cell growth, NCI panel, 48 h
[1] = system: DU-145 prostate
[2] = system: OVCAR-3 ovarian
[3] = system: IGROV1 ovarian
[4] = system: SNB-75 CNS
[5] = system: HCT-116 colon
[6] = system: K-562 leukemia
[7] = system: CCRF-CEM leukemia
[8] = system: A549 NSCLC
[9] = system: SF-539 CNS
[10] = system: NCI-H23 lung
[11] = system: MDA-MB-231 breast
[12] = system: OVCAR-4 ovarian
[13] = system: SK-MEL-5 melanoma
[14] = system: SK-OV-3 ovarian
[15] = system: RPMI-8226 leukemia
[16] = system: SK-MEL-2 melanoma
[17] = system: OVCAR-5 ovarian
[18] = system: MDA-N
[19] = system: 786-0 renal
[20] = system: NCI-H226 lung

Compound | TGI [1] [µM] | TGI [2] [µM] | TGI [3] [µM] | TGI [4] [µM] | TGI [5] [µM] | TGI [6] [µM] | TGI [7] [µM] | TGI [8] [µM] | TGI [9] [µM] | TGI [10] [µM] | TGI [11] [µM] | TGI [12] [µM] | TGI [13] [µM] | TGI [14] [µM] | TGI [15] [µM] | TGI [16] [µM] | TGI [17] [µM] | TGI [18] [µM] | TGI [19] [µM] | TGI [20] [µM]
CC(NCc1c(O)ccc2ccc(=O)oc12)C(=O)O (configuration not stated) | > 100 | > 100 | > 100 | > 100 | > 100 | > 100 | > 100 | > 100 | > 100 | > 100 | > 100 | > 100 | > 100 | > 100 | > 100 | > 100 | > 100 | > 100 | > 100 | > 100
COc1cc(C2OC(N)=C(C#N)C3=C2C(C)CCC3)cc(OC)c1OC (configuration not stated) | > 100 | > 100 | > 100 | 94.8 | > 100 | > 100 | > 100 | – | > 100 | > 100 | > 100 | – | > 100 | > 100 | > 100 | > 100 | > 100 | > 100 | > 100 | > 100
O=c1[nH]c(N/N=C\C(=N/Nc2nc3ccccc3c(=O)[nH]2)C(O)C(O)C(O)CO)nc2ccccc12 (configuration not stated) | > 100 | > 100 | > 100 | > 100 | > 100 | > 100 | > 100 | > 100 | > 100 | > 100 | > 100 | – | > 100 | > 100 | > 100 | > 100 | > 100 | > 100 | > 100 | > 100
